Values of other authors, collected in patent US20050000529A1, “Method and compositions for imparting cooling effect to tobacco products” (priority 2001, published 2005).
Entries after “also recorded” stand apart in the source; their conditions may differ.

Legend:
[1] = tap water, triangle test
[2] = tap water, triangle test; remark: listed apart in the source
[3] = taste testing; comparison with related compounds

## CC1=C(N2CCCC2)C(=O)CC(C)(C)C1 [Compound 17, 3,5,5-trimethyl-2-(1-pyrrolidinyl)-2-cyclohexen-1-one]
[1]
  Odor Threshold: 50.2 to 83.6 mg/kg
[2]
  Cooling Threshold: 1605.0 to 2675.0 mg/kg

## CC1C=C(N2CCCC2)C(=O)C1C (centres unmarked) [Compound 10, (E)-4,5-dimethyl-2-(1-pyrrolidinyl)-2-cyclopenten-1-one]
[3]
  cooling activity (in words): significant increase in cooling activity
[1]
  Odor Threshold: 136.0 to 226.6 mg/kg
[2]
  Cooling Threshold: 68.0 to 113.3 mg/kg

## CC1=C(N2CCCC2)C(=O)CC1 [Compound 1, 3-methyl-2-(1-pyrrolidinyl)-2-cyclopenten-1-one]
[3]
  cooling activity (in words): long lasting sensation of coolness; also recorded: high degree of cooling effect
[1]
  Odor Threshold: 43.5 to 72.5 mg/kg
[2]
  Cooling Threshold: 29.0 to 43.5 mg/kg

## CC1=C(N2CCCC2)C(=O)CCC1 [Compound 16, 3-methyl-2-(1-pyrrolidinyl)-2-cyclohexen-1-one]
[1]
  Odor Threshold: 45.2 to 75.4 mg/kg
[2]
  Cooling Threshold: 90.5 to 150.8 mg/kg

## CC1CCC=C(N2CCCC2)C1=O (centres unmarked) [Compound 18, 6-methyl-2-(1-pyrrolidinyl)-2-cyclohexen-1-one]
[1]
  Odor Threshold: 3.4 to 5.6 mg/kg
[2]
  Cooling Threshold: 26.9 to 44.8 mg/kg

## CC1CC=C(N2CCCCC2)C1=O (centres unmarked) [Compound 5, 5-methyl-2-(1-piperidinyl)-2-cyclopenten-1-one]
[1]
  Odor Threshold: 12.0 to 20.0 mg/kg
[2]
  Cooling Threshold: 16.0 to 24.0 mg/kg

## CC1=C(N2CCCC2)C(=O)CC1C (centres unmarked) [Compound 12, 3,4-dimethyl-2-(1-pyrrolidinyl)-2-cyclopenten-1-one]
[1]
  Odor Threshold: 25.7 to 42.8 mg/kg
[2]
  Cooling Threshold: 51.3 to 85.5 mg/kg

## CC1=C(N2CCCCC2)C(=O)CC1 [Compound 3, 3-methyl-2-(1-piperidinyl)-2-cyclopenten-1-one]
[1]
  Odor Threshold: 80.0 to 120.0 mg/kg
[2]
  Cooling Threshold: 60.0 to 100.0 mg/kg

## CCCCN(CCCC)C1=CCC(C)C1=O (centres unmarked) [Compound 7, 5-methyl-2-dibutylamino-2-cyclopenten-1-one]
[3]
  cooling activity (in words): drastically decreases the cooling activity
[1]
  Odor Threshold: 2.4 to 2.8 mg/kg
[2]
  Cooling Threshold: 48.4 to 67.8 mg/kg

## CC1=C(N2CCCC2)C(=O)OC1C (centres unmarked) [Compound 26, 4,5-dimethyl-3-(1-pyrrolidinyl)-2-(5H)-furanone]
[3]
  cooling activity (in words): dramatically increases cooling activity
[1]
  Odor Threshold: 32.0 to 64.0 mg/kg
[2]
  Cooling Threshold: 2.0 to 4.0 mg/kg

## CCN(CC)C1=C(C)CCC1=O [Compound 4, 3-methyl-2-diethylamino-2-cyclopenten-1-one]
[1]
  Odor Threshold: 2.0 to 3.0 mg/kg
[2]
  Cooling Threshold: 30.0 to 50.0 mg/kg

## CC1CC=C(N2CCOCC2)C1=O (centres unmarked) [Compound 20, 5-methyl-2-(1-morpholino)-2-cyclopenten-1-one]
[3]
  cooling activity (in words): substantially decreases the cooling effect
[1]
  Odor Threshold: 935.0 to 1558.0 mg/kg
[2]
  Cooling Threshold: 467.0 to 700.8 mg/kg

## COC(=O)C1CCCN1C1=CC[C@H](C)C1=O (stereo partly drawn) [Compound 21, (S)-5-methyl-2-(2-methoxycarbonyl-1-pyrrolidinyl)-2-cyclopenten-1-one]
[3]
  cooling activity (in words): substantially decreases the cooling effect
[2]
  Cooling Threshold: 112.0 to 188.0 mg/kg

## CC1=C(N2CCCC2)C(=O)CO1 [Compound 23, 5-methyl-4-(1-pyrrolidinyl)-3-(2H)-furanone]
[3]
  cooling activity (in words): strong increase in cooling activity; also recorded: high degree of cooling effect
[2]
  Cooling Threshold: 1.5 to 3.0 mg/kg

## CC1=C(N2CCCC2)C(=O)C(C)O1 (stereo not drawn) [Compound 24, 2,5-dimethyl-4-(l-pyrrolidinyl)-3-(2H)-furanone]
[1]
  Odor Threshold: 30.0 to 60.0 mg/kg
[2]
  Cooling Threshold: 100.0 to 140.0 mg/kg

## CCCCCCN(CCCCCC)C1=CCC(C)C1=O (centres unmarked) [Compound 8, 5-methyl-2-dihexylamino-2-cyclopenten-1-one]
[3]
  cooling activity (in words): completely diminishes the cooling activity

## CC1CC=C(N2CCCC2)C1=O (centres unmarked) [Compound 2, 5-methyl-2-(1-pyrrolidinyl)-2-cyclopenten-1-one]
[3]
  cooling activity (in words): long lasting sensation of coolness; also recorded: high degree of cooling effect
[1]
  Odor Threshold: 2.6 to 5.2 mg/kg
[2]
  Cooling Threshold: 4.5 to 9.0 mg/kg

## CCC1CC=C(N2CCCC2)C1=O (centres unmarked) [Compound 9, 5-ethyl-2-(1-pyrrolidinyl)-2-cyclopenten-1-one]
[3]
  cooling activity (in words): significant increase in cooling activity
[1]
  Odor Threshold: 13.4 to 22.4 mg/kg
[2]
  Cooling Threshold: 26.7 to 42.5 mg/kg

## CC1=C(N2CCCC2)C(=O)C(C)C1 (centres unmarked) [Compound 11, 3,5-dimethyl-2-(1-pyrrolidinyl)-2-cyclopenten-1-one]
[3]
  cooling activity (in words): small effect on cooling activity
[1]
  Odor Threshold: 16.0 to 27.0 mg/kg
[2]
  Cooling Threshold: 32.5 to 53.5 mg/kg

## CC1=C(N2CCCC2)CCC1=O [Compound 14, 2-methyl-3-(1-pyrrolidinyl)-2-cyclopenten-1-one]
[3]
  cooling activity (in words): loss of cooling activity
[1]
  Odor Threshold: 92.0 to 138.0 mg/kg

## O=C1C=C(N2CCCC2)CC1 [Compound 13, 3-(1-pyrrolidinyl)-2-cyclopenten-1-one]
[3]
  cooling activity (in words): loss of cooling activity
[1]
  Odor Threshold: 234.0 to 390.0 mg/kg

## CC1=C(N2CCC[C@H]2C(=O)O)C(=O)CC1 [Compound 22, (S)-3-methyl-2-(2-carboxy-l-pyrrolidinyl)-2-cyclopenten-1-one]
[3]
  cooling activity (in words): substantially decreases the cooling effect
[2]
  Cooling Threshold: 490.0 to 735.0 mg/kg

## CC1CC(C)(C)C=C(N2CCCC2)C1=O (centres unmarked) [Compound 19, 4,4,6-trimethyl-2-(1-pyrrolidinyl)-2-cyclohexen-1-one]
[3]
  cooling activity (in words): significantly decreases cooling activity
[1]
  Odor Threshold: 553.0 to 922.0 mg/kg
[2]
  Cooling Threshold: 2213.0 to 3688.0 mg/kg

## CC1=C(N2CCCC2)C(=O)OC1 [Compound 25, 4-methyl-3-(1-pyrrolidinyl)-2-(5H)-furanone]
[3]
  cooling activity (in words): dramatically increases cooling activity; also recorded: high degree of cooling effect
[2]
  Cooling Threshold: 0.05 to 0.06 mg/kg

## O=C1CCCC=C1N1CCCC1 [Compound 15, 2-(1-pyrrolidinyl)-2-cyclohexen-1-one]
[3]
  cooling activity (in words): significantly decreases cooling activity
[1]
  Odor Threshold: 62.0 to 106.0 mg/kg
[2]
  Cooling Threshold: 495.0 to 830.0 mg/kg

## CCN(CC)C1=CCC(C)C1=O (centres unmarked) [Compound 6, 5-methyl-2-diethylamino-2-cyclopenten-1-one]
[3]
  cooling activity (in words): does not substantially decrease the cooling activity
[1]
  Odor Threshold: 6.0 to 9.0 mg/kg
[2]
  Cooling Threshold: 12.0 to 20.0 mg/kg
